Measured values published in US4366158A, “1-(8-Quinolyl)-2-pyrrolidone and its pharmaceutical compositions” (Burroughs Wellcome Co., priority 1979, dated 1982).
Where two headings read alike, the source gives them in different places.

Assays:
[1] = tested on: prostaglandin cyclooxygenase; assay: inhibition of prostaglandin cyclooxygenase; format: biochemical
[2] = solubility of the base; format: physicochemical
[3] = tested on: mouse; assay: Acetic Acid Writhing Test (AAWT), mouse; format: in vivo; conditions: po
Source text: (§1) Using the procedure described by Koster et al. in Fed. […] 26, Anti-inflammatory Drugs, Ed.

[4] = tested on: rat; format: in vivo
[5] = tested on: rat; assay: Yeast-Induced Hyperthermia Assay; format: in vivo; conditions: for antipyretic and hypothermic activity: rat; for ED50: po
Source text: The Yeast-Induced Hyperthermia Assay was used according to the procedure described by Khalili-Varasteh et al. in Arch. Int. Pharmacodyn.

[6] = tested on: morphine receptor; assay: binding to the morphine receptor
[7] = tested on: rat; assay: Acetic Acid Writhing Test (AAWT), rat; format: in vivo; conditions: po
Source text: as §1

[8] = tested on: rat; assay: Carrageenin Hindlimb Oedema Assay (CHOA); format: in vivo
[9] = tested on: rat; assay: Carrageenin Pleurisy Assay (CPA), 3 hour exudate volume; format: in vivo; conditions: for ED50: po, read-out: ED50, 3 hr. Vol
[10] = tested on: peroxidase; assay: inhibition of peroxidase; format: biochemical
[11] = tested on: lipoxygenase; assay: inhibition of lipoxygenase; format: biochemical
[12] = tested on: rat; assay: Carrageenin Pleurisy Assay (CPA), mobilized neutrophils at 3 hours; format: in vivo; conditions: Neutrophil, po, read-out: ED50, 3 hr. Cells
Experimental: Following the procedure described by Vinegar et al. in Proc Soc Exp Biol Med 151, 556, (1976), the acute anti-inflammatory activity of the compound of formula (I) was compared with that of known anti-inflammatory drugs in the rat. Two assays were performed: in the first, the average 3 hour exudate volume for each drug-treated group was determined and the % inhibition relative to solvent-fed control animals calculated, the ED50 being the dose required to reduce the 3 hour exudate volume by 50%; in the second, the number of mobilized neutrophils was quantified and the % inhibition relative to solvent-fed control animals calculated, the ED50 being the dose required to reduce the number of neutrophils mobilized at 3 hours by 50%.

[13] = tested on: rat; assay: Trypsin Hyperalgesic Assay (Published THA); format: in vivo; conditions: for ED50: po, 0.5 h
Experimental: (§2) The analgesic agents were administered 30 minutes after the administration of trypsin. In addition, a modification of Vinegar's published assay was carried out, comprising the administration of the analgesic agent preceding subplantar injection of trypsin (0.10 ml of 10% solution of trypsin in pyrogen-free water) by 15 minutes. In both THA's, pain scores were determined 60 minutes after trypsin injection.

[14] = Toxicity Test; conditions: rat, in vivo, po
Experimental: Four non-fasted male rats of 160-250 gram body weight was used for each dose level. The compound to be tested was administered by the indicated route and the symptom onset time, the intensity of the effect and the duration during a 4 hour observation period were recorded. The LD50 estimation was based on a 7 day observation and was determined by the method of Miller and Tainter (Proc. Soc. Exp. Biol. Med. 57, 261 (1944)).

[15] = inhibition of analgesic activity by naloxone; format: in vivo
[16] = tested on: rat; assay: anti-inflammatory action in the rat, in words (carrageenin pleurisy and carrageenin hindlimb oedema assays); format: in vivo
[17] = tested on: rat; assay: Trypsin Hyperalgesic Assay (Modified THA); format: in vivo; conditions: po
Experimental: as §2

[18] = tested on: brain; assay: analgesic activity when injected directly into the brain; format: in vivo
[19] = acetic acid writhing assays (species not stated); format: in vivo; conditions: in words
[20] = Rat Yeast Hyperthermia, p.o., read-out: ED50
[21] = AAWT, rat, p.o., read-out: ED50
[22] = CPA, 3 hour exudate volume reduced by 50%, rat, p.o.
[23] = CPA, neutrophils mobilized at 3 hours reduced by 50%, rat, p.o.
[24] = Published THA, rat, p.o., agent 30 minutes after trypsin, read-out: ED50
[25] = male rats, 7 day observation, method of Miller and Tainter, read-out: LD50
[26] = Modified THA, rat, p.o., agent 15 minutes before trypsin, read-out: ED50

For O=C1CCCN1c1cccc2cccnc12 [Compound of Formula (I), 1-(8-quinolyl)-2-pyrrolidinone], the “inhibition of prostaglandin cyclooxygenase” value [1] was “does not inhibit”, the solubility ([2]; in 0.1 N HCl) was greater than 50 mg/mL and the solubility ([2]; in water) was greater than 50 mg/mL. For the same compound, the ED50 ([3]; AAWT, mouse, p.o., read-out: ED50) was 99 ± 9.8 mg/kg, the gastric damage ([4]; rat, 5 days of oral dosing at 40 mg/kg) was “does not produce gastric damage” and the gastric damage ([4]; rat, single oral dose of 200 mg/kg) was “does not produce gastric damage”. For the same compound, the “effect on body temperature of rats with a normal temperature” value ([5]; in words, higher dose levels) was “lowers the body temperature of rats”, the “antipyretic and hypothermic activity” value ([5]; in words) was “antipyretic and hypothermic activity” and the ED50 [5, 20] was 22 ± 3.9 mg/kg. The “binding to the morphine receptor” value [6] was “does not appreciably bind to the morphine receptor”, the ED50 [7, 21] was 22 ± 2.1 mg/kg and the ED50 ([8]; CHOA, rat, read-out: ED50) was 54 ± 31.6 mg/kg. For the same compound, the “duration of acute anti-inflammatory activity (time of drug administration prior to carrageenin in which inhibition of 3 hour pleural exudate volume declined to 40%)” value ([9]; CPA, 80 mg/kg (p.o.)) was 9 h, the ED50 [9, 22] was 20 ± 4.3 mg/kg and the inhibition of peroxidase [10] was “does not inhibit”. The inhibition of lipoxygenase [11] was “does not inhibit”, the ED50 [12, 23] was 37 ± 10.4 mg/kg and the ED50 [13, 24] was 37 ± 7.8 mg/kg. The “duration of analgesic activity (time of drug administration prior to trypsin in which inhibition of hyperalgesia declined to 40%)” value ([13]; published THA, 75 mg/kg (p.o.)) was 10.8 h, the NOAEL at 4 h [14] was 250 mg/kg and the LD50 at 168 h [14, 25] was 1650 mg/kg. For the same compound, the “inhibition of analgesic activity by naloxone” value [15] was “not inhibited by naloxone”, the anti-inflammatory activity ([16]; rat) was “potent, long-lasting acute anti-inflammatory activity” and the “anti-inflammatory effect compared with acetaminophen” value ([16]; versus acetaminophen) was “more potent and to have a longer lasting anti-inflammatory effect”. The ED50 [17, 26] was 13 ± 1.8 mg/kg and the “analgesic activity on injection into the brain” value [18] was “inactive when injected directly into the brain”.
With CC(=O)Nc1ccc(O)cc1 [Acetaminophen] the “antipyretic and hypothermic activity” value ([5]; in words) was “antipyretic and hypothermic activity”, the ED50 [5, 20] was 72 ± 8.6 mg/kg and the ED50 [7, 21] was 127 ± 16.6 mg/kg. The “duration of acute anti-inflammatory activity (time of drug administration prior to carrageenin in which inhibition of 3 hour pleural exudate volume declined to 40%)” value ([9]; CPA, 220 mg/kg (p.o.)) was “over 2 hours”, the ED50 [9, 22] was 172 ± 22.4 mg/kg and the ED50 [12, 23] was 189 ± 48.6 mg/kg. For the same compound, the ED50 [13, 24] was 360 mg/kg, the LD50 at 168 h [14] was 2000 mg/kg and the NOAEL at 4 h [14] was 250 mg/kg. The ED50 [17, 26] was 95 ± 17.2 mg/kg.
With CC(=O)Oc1ccccc1C(=O)O [Aspirin] the ED50 ([3]; Mus musculus) was 137 ± 16.9 mg/kg, the gastric damage ([4]; single oral dose of 30 mg/kg) was “produces ulcers and haemorrhages” and the ED50 [5] was 50 ± 8.1 mg/kg. For the same compound, the “activity in the former (acetic acid writhing) assay” value [19] was “inactive in the former assay”, the ED50 ([7]; Rattus norvegicus) was 21 ± 3.4 mg/kg and the ED50 ([8]; Rattus norvegicus) was 145 ± 74 mg/kg. It also gave an ED50 ([9]; Rattus norvegicus, 3 h) of 28 ± 3.2 mg/kg, an ED50 ([12]; Rattus norvegicus, 3 h) of 75 ± 7.5 mg/kg and an ED50 ([13]; Rattus norvegicus) greater than 180 mg/kg. It also gave an NOAEL at 4 h ([14]; male rats, 4 hour observation, read-out: No symptom dose) of 10 mg/kg, an LD50 at 168 h [14, 25] of 1610 mg/kg and an ED50 ([17]; Rattus norvegicus) greater than 180 mg/kg.
